Tests used:
APOL1 G2 [1] = molecular target: T1, APOL1 G2 (Homo sapiens, UniProt O14791, DEL388-389); assay: APOL1 G2 FLIPR calcium influx assay (HEK T-REx/GCaMP6f/APOL1 G2 K6.3 cells); assay type: cell-based; details: HEK293 clone expressing GCaMP6f, doxycycline-induced APOL1 G2; prevention of calcium influx; geometric mean of at least 2 assay runs
T1 construct: expressed in transfected cells; host or cells: HEK293/T-REx APOL1 G2 clone #2, doxycycline-inducible
T1 sequence (O14791 with tags, fused parts or gaps DEL388-389): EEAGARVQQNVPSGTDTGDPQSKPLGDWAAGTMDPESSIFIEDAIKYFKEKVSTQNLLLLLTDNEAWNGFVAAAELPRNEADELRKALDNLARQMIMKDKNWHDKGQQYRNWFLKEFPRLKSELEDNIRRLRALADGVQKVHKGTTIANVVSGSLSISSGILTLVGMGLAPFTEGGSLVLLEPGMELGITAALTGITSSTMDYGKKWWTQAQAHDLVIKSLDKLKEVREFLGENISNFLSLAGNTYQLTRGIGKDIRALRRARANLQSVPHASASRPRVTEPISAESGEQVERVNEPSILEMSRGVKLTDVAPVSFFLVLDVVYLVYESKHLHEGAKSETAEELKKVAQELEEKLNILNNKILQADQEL
Procedure, shortened: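 HEK293 clone stably expressing GCaMP6f, APOL1 G2 induced with doxycycline for 6 h; compounds (duplicate 8-point dose response) preincubated 10 min at room temperature in Ca2+-free Tyrode's buffer, pH 7.4. Ca2+ added to 5 mM final, influx read on FLIPR; AC50 is geometric mean of ≥2 runs.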

APOL1 G2 [2] = molecular target: T1, APOL1 G2; assay: APOL1 G2 HEK293 rescue of cell death caused by overexpression of APOL1 (CellTiter-Glo); assay type: cell-based; details: HEK293/T-REx APOL1 G2 clone #2, doxycycline induction, 17 hours, CellTiter-Glo luminescence; reversal of cell death; geometric mean of at least 2 assay runs
Procedure, shortened: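 Doxycycline (6 ng/mL)-induced HEK293/T-REx APOL1 G2 clone seeded at 5,000 cells/well with compound in duplicate 8-point 3-fold series (0.5% DMSO), 17 h at 37 °C. CellTiter-Glo luminescence; EC50 from four-parameter logistic fit, geometric mean of ≥2 runs.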

Row | Structure (SMILES) | AC50 (APOL1 G2 [1]) [nM] | EC50 (APOL1 G2 [2]) [nM]
1 | CN=S(C)(=O)c1ccc(OC[C@@H]2CN(CCc3cccc(C#N)c3)C[C@H]2C)cn1 (stereo partly drawn) [Compound 71, 3-{2-[(3S,4S)-3-methyl-4-[({6-[methyl(methylimino)oxo-λ^6-sulfanyl]pyridin-3-yl}oxy)methyl]pyrrolidin-1-yl]ethyl}benzonitrile] | 492 | 287
2 | C[C@@H]1CN(CCc2cc(C#N)cc(C#N)c2)C[C@H]1COc1ccc(S(C)(=O)=O)nc1 [Compound 74, 5-{2-[(3S,4S)-3-{[(6-methanesulfonylpyridin-3-yl)oxy]methyl}-4-methylpyrrolidin-1-yl]ethyl}benzene-1,3-dicarbonitrile] | 479 | 665
3 | CC(=O)N(C)CCS(=O)(=O)c1ccc(OC[C@@H]2CN(CCc3cc(Cl)cc(C#N)c3)C[C@H]2C)cc1 [Compound 75, N-[2-(4-{[(3S,4S)-1-[2-(3-chloro-5-cyanophenyl)ethyl]-4-methylpyrrolidin-3-yl]methoxy}benzenesulfonyl)ethyl]-N-methylacetamide] | 419 | 70.6
4 | CC(=O)N(C)CCS(=O)(=O)c1ccc(OC[C@@H]2CN(CCc3cccc(C#N)c3)C[C@H]2C)cc1 [Compound 76, N-[2-(4-{[(3S,4S)-1-[2-(3-cyanophenyl)ethyl]-4-methylpyrrolidin-3-yl]methoxy}benzenesulfonyl)ethyl]-N-methylacetamide] | 250 | 222
5 | C[C@@H]1CN(CCc2cc(Cl)cc(C#N)c2)C[C@H]1COc1ccc(C2(S(C)(=O)=O)CC2)cc1 [Compound 77, 3-chloro-5-{2-[(3S,4S)-3-{[4-(1-methanesulfonylcyclopropyl)phenoxy]methyl}-4-methylpyrrolidin-1-yl]ethyl}benzonitrile] | 189 | 176
6 | C[C@@H]1CN(CCc2cc(Cl)cc(C#N)c2)C[C@H]1COc1ccc(C2(S(C)(=O)=O)COC2)cc1 [Compound 78, 3-chloro-5-{2-[(3S,4S)-3-{[4-(3-methanesulfonyloxetan-3-yl)phenoxy]methyl}-4-methylpyrrolidin-1-yl]ethyl}benzonitrile] | 114 | 25.8
7 | COC(=O)CCCS(=O)(=O)c1ccc(OC[C@@H]2CN(CCc3cc(Cl)cc(C#N)c3)C[C@H]2C)cc1 [Compound 80, methyl 4-(4-{[(3S,4S)-1-[2-(3-chloro-5-cyanophenyl)ethyl]-4-methylpyrrolidin-3-yl]methoxy}benzenesulfonyl)butanoate] | 404 | 202
8 | C[C@@H]1CN(CCc2cc(Cl)cc(C#N)c2)C[C@H]1COc1cc(F)c(S(C)(=O)=O)c(F)c1 [Compound 82, 3-chloro-5-{2-[(3S,4S)-3-[(3,5-difluoro-4-methanesulfonylphenoxy)methyl]-4-methylpyrrolidin-1-yl]ethyl}benzonitrile] | 370 | 165
9 | Cc1cc(OC[C@@H]2CN(CCc3cccc(C#N)c3)C[C@H]2C)ccc1S(C)(=O)=O [Compound 83, 3-{2-[(3S,4S)-3-[(4-methanesulfonyl-3-methylphenoxy)methyl]-4-methylpyrrolidin-1-yl]ethyl}benzonitrile] | 94.6 | 94.3
10 | Cc1cc(OC[C@@H]2CN(CCc3cc(Cl)cc(C#N)c3)C[C@H]2C)ccc1S(C)(=O)=O [Compound 84, 3-chloro-5-{2-[(3S,4S)-3-[(4-methanesulfonyl-3-methylphenoxy)methyl]-4-methylpyrrolidin-1-yl]ethyl}benzonitrile] | 182 | 28.6
11 | C[C@@H]1CN(CCc2cc(Cl)cc(C#N)c2)C[C@H]1COc1ccc(S(C)(=O)=O)nc1 [Compound 85, 3-chloro-5-{2-[(3S,4S)-3-{[(6-methanesulfonylpyridin-3-yl)oxy]methyl}-4-methylpyrrolidin-1-yl]ethyl}benzonitrile] | 221 | 186
12 | C[C@@H]1CN(CCc2cccc(C#N)c2)C[C@H]1COc1ccc(S(C)(=O)=O)c(C#N)c1 [Compound 86, 5-{[(3S,4S)-1-[2-(3-cyanophenyl)ethyl]-4-methylpyrrolidin-3-yl]methoxy}-2-methanesulfonylbenzonitrile] | 117 | 20.4
13 | C[C@@H]1C[C@H](COc2ccc(S(C)(=O)=O)cc2)CN1C1CCc2c(Cl)cccc2C1 (stereo partly drawn) [Compound 88, (2R,4S)-1-(5-chloro-1,2,3,4-tetrahydronaphthalen-2-yl)-4-[(4-methanesulfonylphenoxy)methyl]-2-methylpyrrolidine] | 843 | 215
14 | C[C@@H]1CN(CC(O)c2cccc(C#N)c2)C[C@H]1COc1ccc(S(C)(=O)=O)nc1 (stereo partly drawn) [Compound 104, 3-{1-hydroxy-2-[(3S,4S)-3-{[(6-methanesulfonylpyridin-3-yl)oxy]methyl}-4-methylpyrrolidin-1-yl]ethyl}benzonitrile] | 700 | 1010
15 | CS(=O)(=O)C1(c2ccc(OC[C@@H]3CN(CCc4cccc(Cl)c4)CCN3)cc2)COC1 [Compound 107, (3S)-1-[2-(3-chlorophenyl)ethyl]-3-{[4-(3-methanesulfonyloxetan-3-yl)phenoxy]methyl}piperazine] | < 86.6 | 245

Now from value to molecule, other results behind:

Row | AC50 (APOL1 G2 [1]) [nM] | Structure (SMILES) | EC50 (APOL1 G2 [2]) [nM]
16 | 337 | CN1CC(S(=O)(=O)c2ccc(OC[C@@H]3CN(CCc4cccc(Cl)c4)CCN3)cc2)C1 [Compound 108, (3S)-1-[2-(3-chlorophenyl)ethyl]-3-({4-[(1-methylazetidin-3-yl)sulfonyl]phenoxy}methyl)piperazine] | 664
17 | 746 | CC(=O)N1CC(S(=O)(=O)c2ccc(OC[C@@H]3CN(CCc4cccc(Cl)c4)CCN3)cc2)C1 [Compound 109, 1-[3-(4-{[(2S)-4-[2-(3-chlorophenyl)ethyl]piperazin-2-yl]methoxy}benzenesulfonyl)azetidin-1-yl]ethan-1-one] | 224
18 | 140 | CS(=O)(=O)C1(c2ccc(OC[C@@H]3CN(CCc4cc(Cl)cc(C#N)c4)CCN3)cc2)CC1 [Compound 110, 3-chloro-5-{2-[(3S)-3-{[4-(1-methanesulfonylcyclopropyl)phenoxy]methyl}piperazin-1-yl]ethyl}benzonitrile] | 93.2
19 | < 116 | CS(=O)(=O)C1(c2ccc(OC[C@@H]3CN(CCc4cc(Cl)cc(C#N)c4)CCN3)cc2)COC1 [Compound 111, 3-chloro-5-{2-[(3S)-3-{[4-(3-methanesulfonyloxetan-3-yl)phenoxy]methyl}piperazin-1-yl]ethyl}benzonitrile] | 137
20 | 409 | Cc1cc(OC[C@@H]2CN(CCc3cc(Cl)cc(C#N)c3)CCN2)ccc1S(C)(=O)=O [Compound 112, 3-chloro-5-{2-[(3S)-3-[(4-methanesulfonyl-3-methylphenoxy)methyl]piperazin-1-yl]ethyl}benzonitrile] | 296
21 | 634 | CS(=O)(=O)c1ccc(OC[C@@H]2CN(CCc3cccc(C#N)c3)CCN2)cc1C(F)(F)F [Compound 113, 3-{2-[(3S)-3-{[4-methanesulfonyl-3-(trifluoromethyl)phenoxy]methyl}piperazin-1-yl]ethyl}benzonitrile] | 726
22 | 868 | CS(=O)(=O)c1ccc(OC[C@@H]2CN(CCc3cc(Cl)cc(C#N)c3)CCN2)cc1C(F)(F)F [Compound 114, 3-chloro-5-{2-[(3S)-3-{[4-methanesulfonyl-3-(trifluoromethyl)phenoxy]methyl}piperazin-1-yl]ethyl}benzonitrile] | 295
23 | 470 | C[C@@H]1CN(C(CO)Cc2cccc(Cl)c2)C[C@H]1COc1ccc(S(C)(=O)=O)cc1 (stereo partly drawn) [Compound 115, 3-(3-chlorophenyl)-2-[(3S,4S)-3-[(4-methanesulfonylphenoxy)methyl]-4-methylpyrrolidin-1-yl]propan-1-ol] | 1830
24 | 480 | C[C@@H]1CN(C(CO)Cc2cc(Cl)cc(C#N)c2)C[C@H]1COc1ccc(S(C)(=O)=O)cc1 (stereo partly drawn) [Compound 120, 3-chloro-5-[3-hydroxy-2-[(3S,4S)-3-[(4-methanesulfonylphenoxy)methyl]-4-methylpyrrolidin-1-yl]propyl]benzonitrile] | 1040
25 | 1740 | C[C@@H]1CN(CC(CO)c2cc(Cl)cc(C#N)c2)C[C@H]1COc1ccc(S(C)(=O)=O)cc1 (stereo partly drawn) [Compound 126, 3-chloro-5-(1-hydroxy-3-((3S,4S)-3-methyl-4-((4-(methylsulfonyl)phenoxy)methyl)pyrrolidin-1-yl)propan-2-yl)benzonitrile] | 2760
26 | < 229 | CS(=O)(=O)c1ccc(OC[C@@H]2CCCN(C3CCc4ccc(Cl)cc4C3)C2)cc1 (stereo partly drawn) [Compound 131, (3R)-1-(7-chloro-1,2,3,4-tetrahydronaphthalen-2-yl)-3-[(4-methanesulfonylphenoxy)methyl]piperidine] | 994
